{"source": "patent US12257243B2", "about": "“5-hydroxy-7-oxabicyclo[2.2.1]heptane-2-carboxamide derivatives for inducing chondrogenesis for treating joint damage” (NOVARTIS AG, priority 2018, dated 2025)", "system": "ALP in normal human articular chondrocytes (NHACs)", "experiment": "Alkaline Phosphatase (ALP) activity assay (staining and quantitation) in NHACs, prevention of chondrocyte hypertrophy", "format": "cell-based", "details": "human IL-1 beta 10 ng/mL, 12 days; for IC50: Fast Blue RR staining, high content imaging, read-out: ALP in NHAC IC50; for Emax / ALP in NHAC (% Efficacy): value in parentheses; for Emax: read-out: ALP in NHAC (% Efficacy)", "protocol": "The compounds of the present invention were evaluated in the Alkaline Phosphatase (ALP) activity assay to determine the ability of the compounds to prevent chondrocyte hypertrophy in normal human articular chondrocytes (NHACs).\nNormal human articular chondrocytes (NHACs) were purchased from PromoCell (Heidelberg, Germany) and grown in Chondrocyte Growth Medium (CGM; Lonza, Walkersville, Md.).\nNHACs were expanded in Chondrocyte Growth Medium (CGM) from Lonza until they reached a 60-80% confluency. To initiate differentiation, 7,500 cells were plated/well with indicated test compound dose in 384-well Cell Carrier Ultra plates (Perkin Elmer) with DMEM (SH30022—HyClone) containing 10% FBS (35-015-CV—Corning), 1% Pen/Strep antibiotics (SV30010—HyClone), and 1% Normocin (50 mg/mL—InvivoGen). Cells with test compounds were incubated at 37° C., 5% CO2 for 5 hours and then added human IL-1 beta (AF-200-1B—Peprotech) to each well at a final concentration of 10 ng/mL and incubated at 37° C., 5% CO2 for 12 days.\nTo detect the presence of hypertrophic cells, NHACs were fixed with 4% paraformaldehyde and Hoechst 33342 (Invitrogen) dye for 30 minutes, rinsed in PBS, then stained with Fast Blue RR Salt (F0500—Sigma) with Naphthol AS-MX Phosphate Alkaline Solution, 0.25% (855—Sigma-Aldrich).\nThe staining was imaged by fluorescent microscopy, using the 561 nm wavelength, and/or quantified by high content imaging with the Image press Confocal (Molecular Devices, Sunnyvale, Calif.). Data analyses were performed with a customized multiwavelength cell-scoring application.", "note": "Like-named read-outs stand apart in the source and are kept apart here.", "data": [{"smiles": "Cn1cc([C@H]2[C@H]3O[C@H](C[C@@H]3O)[C@@H]2C(=O)Nc2cc(C(F)(F)F)ccc2F)c(C(F)(F)F)n1", "note": "(racemic) [Example 52, rac-(1R,2R,3S,4R,5S)—N-(2-fluoro-5-(trifluoromethyl)phenyl)-5-hydroxy-3-(1-methyl-3-(trifluoromethyl)-1H-pyrazol-4-yl)-7-oxabicyclo[2.2.1]heptane-2-carboxamide]", "values": [{"measurement": "IC50", "setting": "Chondrocyte, 288 h", "value": 4.2, "unit": "µM"}, {"measurement": "Emax", "setting": "Chondrocyte, 288 h", "value": 73, "unit": "%"}]}, {"smiles": "COc1cc([C@H]2[C@H]3O[C@H](C[C@@H]3O)[C@@H]2C(=O)Nc2ccc(C)c(C(F)(F)F)c2)ccn1", "note": "(racemic) [Example 68, rac-(1R,2R,3,4R,5S)-5-hydroxy-3-(2-methoxypyridin-4-yl)-N-(4-methyl-3-(trifluoromethyl)phenyl)-7-oxabicyclo[2.2.1]heptane-2-carboxamide]", "values": [{"measurement": "IC50", "setting": "Chondrocyte, 288 h", "value": "> 30", "unit": "µM"}, {"measurement": "Emax", "setting": "Chondrocyte, 288 h", "value": 31, "unit": "%"}]}, {"smiles": "Cn1cc([C@H]2[C@H]3O[C@H](C[C@@H]3O)[C@@H]2C(=O)Nc2cc(C(F)(F)F)c(Cl)cn2)c(C(F)(F)F)n1", "note": "(racemic) [Example 36, rac-(1R,2R,3S,4R,5S)—N-(5-chloro-4-(trifluoromethyl)pyridin-2-yl)-5-hydroxy-3-(1-methyl-3-(trifluoromethyl)-1H-pyrazol-4-yl)-7-oxabicyclo[2.2.1]heptane-2-carboxamide]", "values": [{"measurement": "IC50", "setting": "Chondrocyte, 288 h", "value": 3.6, "unit": "µM"}, {"measurement": "Emax", "setting": "Chondrocyte, 288 h", "value": 92, "unit": "%"}]}, {"smiles": "COc1cc([C@@H]2[C@@H]3O[C@@H](C[C@H]3O)[C@H]2C(=O)Nc2cc(C(F)(F)F)ccc2C#N)ccn1", "note": "(single isomer, unassigned) [Example 78a, (1R,2R,3S,4R,5)-N-(2-cyano-5-(trifluoromethyl)phenyl)-5-hydroxy-3-(2-methoxypyridin-4-yl)-7-oxabicyclo[2.2.1]heptane-2-carboxamide or (1S,2S,3R,4S,5R)—N-(2-cyano-5-(trifluoromethyl)phenyl)-5-hydroxy-3-(2-methoxypyridin-4-yl)-7-oxabicyclo[2.2.1]heptane-2-carboxamide]", "values": [{"measurement": "IC50", "value": 1.1, "unit": "µM"}, {"measurement": "ALP in NHAC (% Efficacy)", "value": 100, "unit": "%"}]}, {"smiles": "Cc1cc(C(F)(F)F)cc(NC(=O)[C@@H]2[C@@H](c3cccc(C(F)(F)F)c3)[C@H]3O[C@@H]2C[C@@H]3O)n1", "note": "(racemic) [Example 8, rac-(1R,2R,3S,4R,5S)-5-hydroxy-N-(6-methyl-4-(trifluoromethyl)pyridin-2-yl)-3-(3-(trifluoromethyl)phenyl)-7-oxabicyclo[2.2.1]heptane-2-carboxamide]", "values": [{"measurement": "IC50", "setting": "Chondrocyte, 288 h", "value": 17, "unit": "µM"}, {"measurement": "Emax", "setting": "Chondrocyte, 288 h", "value": 100, "unit": "%"}]}, {"smiles": "CCOc1cc(C(F)(F)F)cc(NC(=O)[C@@H]2[C@@H](c3cccc(C(F)(F)F)c3)[C@H]3O[C@@H]2C[C@@H]3O)n1", "note": "(racemic) [Example 9, rac-(1R 2R,3S,4R,5S)—N-(6-ethoxy-4-(trifluoromethyl)pyridin-2-yl-5-hydroxy-3-(3-(trifluoromethyl)phenyl)-7-oxabicyclo[2.2.1]heptane-2-carboxamide]", "values": [{"measurement": "IC50", "setting": "Chondrocyte, 288 h", "value": 12, "unit": "µM"}, {"measurement": "Emax", "setting": "Chondrocyte, 288 h", "value": 108, "unit": "%"}]}, {"smiles": "O=C(Nc1cc(C(F)(F)F)cc(C2CC2)n1)[C@@H]1[C@@H](c2cccc(C(F)(F)F)c2)[C@H]2O[C@@H]1C[C@@H]2O", "note": "(racemic) [Example 7, rac-(1R,2R,3S,4R 5S)—N-(6-cyclopropyl-4-(trifluoromethyl)pyridin-2-yl)-5-hydroxy-3-(3-(trifluoromethyl)phenyl)-7-oxabicyclo[2.2.1]heptane-2-carboxamide]", "values": [{"measurement": "IC50", "setting": "Chondrocyte, 288 h", "value": "> 30", "unit": "µM"}, {"measurement": "Emax", "setting": "Chondrocyte, 288 h", "value": 12, "unit": "%"}]}, {"smiles": "O=C(Nc1cccc(C(F)(F)F)c1)[C@@H]1[C@@H](c2ccc(C(F)(F)F)nc2)[C@H]2O[C@@H]1C[C@@H]2O", "note": "(racemic) [Example 82, rac-(1R,2R,3S,4R,5S)-5-hydroxy-N-(3-(trifluoromethyl)phenyl)-3-(6-(trifluoromethyl)pyridin-3-yl)-7-oxabicyclo[2.2.1]heptane-2-carboxamide]", "values": [{"measurement": "IC50", "setting": "Chondrocyte, 288 h", "value": 4.6, "unit": "µM"}, {"measurement": "Emax", "setting": "Chondrocyte, 288 h", "value": 78, "unit": "%"}]}, {"smiles": "Cc1cc(NC(=O)[C@@H]2[C@@H](c3cccc(C(F)(F)F)c3)[C@H]3O[C@@H]2C[C@@H]3O)cnc1C(F)(F)F", "note": "(racemic) [Example 28, rac-(1R,2R,3S,4R,5S)-5-hydroxy-N-(5-methyl-6-(trifluoromethyl)pyridin-3-yl)-3-(3-(trifluoromethyl)phenyl)-7-oxabicyclo[2.2.1]heptane-2-carboxamide]", "values": [{"measurement": "IC50", "setting": "Chondrocyte, 288 h", "value": 6, "unit": "µM"}, {"measurement": "Emax", "setting": "Chondrocyte, 288 h", "value": 98, "unit": "%"}]}, {"smiles": "COc1ccc(C(F)(F)F)cc1NC(=O)[C@H]1[C@H](c2cn(C)nc2C(F)(F)F)[C@@H]2O[C@H]1C[C@H]2O", "note": "(single isomer, unassigned) [Example 33b, (1R,2R,3S,4R,5S)-5-hydroxy-N-(2-methoxy-5-trifluoromethyl)phenyl)-3-(1-methyl-3-(trifluoromethyl)-1H-pyrazol-4-L)-7-oxabicyclo[2.2.1]heptane-2-carboxamide or (1S,2S,3R,4S,5R)-5-hydroxy-N-(2-methoxy-5-(trifluoromethyl)phenyl)-3-(1-methyl-3-(trifluoromethyl)-1H-pyrazol-4-L)-7-oxabicyclo[2.2.1]heptane-2-carboxamide]", "values": [{"measurement": "IC50", "value": 3.1, "unit": "µM"}, {"measurement": "ALP in NHAC (% Efficacy)", "value": 99, "unit": "%"}]}, {"smiles": "COc1ccc(C(F)(F)F)cc1NC(=O)[C@@H]1[C@@H](c2cccc(C(F)(F)F)c2)[C@H]2O[C@@H]1C[C@@H]2O", "note": "(racemic) [Example 22, rac-(1R,2R,3S,4R,5S)-5-hydroxy-N-(2-methoxy-5-(trifluoromethyl)phenyl-3-(3-(trifluoromethyl)phenyl)-7-oxabicyclo[2.2.1]heptane-2-carboxamide]", "values": [{"measurement": "IC50", "setting": "Chondrocyte, 288 h", "value": 27, "unit": "µM"}, {"measurement": "Emax", "setting": "Chondrocyte, 288 h", "value": 75, "unit": "%"}]}, {"smiles": "COc1cc([C@H]2[C@H]3O[C@H](C[C@@H]3O)[C@@H]2C(=O)Nc2cc(C(F)(F)F)ccc2F)ccn1", "note": "(racemic) [Example 76, rac-(1R,2R,3S,4R,5S)—N-(2-fluoro-5-(trifluoromethyl)phenyl)-5-hydroxy-3-(2-methoxypyridin-4-yl)-7-oxabicyclo[2.2.1]heptane-2-carboxamide]", "values": [{"measurement": "IC50", "setting": "Chondrocyte, 288 h", "value": 7.2, "unit": "µM"}, {"measurement": "Emax", "setting": "Chondrocyte, 288 h", "value": 53, "unit": "%"}]}, {"smiles": "O=C(Nc1cccc(C(F)(F)F)c1)[C@@H]1[C@@H](c2ccnc(C(F)(F)F)c2)[C@H]2O[C@@H]1C[C@@H]2O", "note": "(racemic) [Example 63, rac-(1R,2R,3S,4R,5S)-5-hydroxy-N-(3-(trifluoromethyl)phenyl)-3-(2-(trifluoromethyl)pyridin-4-yl)-7-oxabicyclo[2.2.1]heptane-2-carboxamide]", "values": [{"measurement": "IC50", "setting": "Chondrocyte, 288 h", "value": 18, "unit": "µM"}, {"measurement": "Emax", "setting": "Chondrocyte, 288 h", "value": 44, "unit": "%"}]}, {"smiles": "O=C(Nc1cccc(C(F)(F)F)c1F)[C@@H]1[C@@H](c2cccc(C(F)(F)F)c2)[C@H]2O[C@@H]1C[C@@H]2O", "note": "(racemic) [Example 15, rac-(1R,2R,3S,4R,5S)—N-(2-fluoro-3-(trifluoromethyl)phenyl)-5-hydroxy-3-(3-(trifluoromethyl)phenyl)-7-oxabicyclo[2.2.1]heptane-2-carboxamide]", "values": [{"measurement": "IC50", "setting": "Chondrocyte, 288 h", "value": 7, "unit": "µM"}, {"measurement": "Emax", "setting": "Chondrocyte, 288 h", "value": 105, "unit": "%"}]}, {"smiles": "CC(C)n1cc([C@H]2[C@H]3O[C@H](C[C@@H]3O)[C@@H]2C(=O)Nc2ccc(C(F)(F)F)c(Cl)c2)c(C(F)(F)F)n1", "note": "(racemic) [Example 87, rac-(1R,2R,3S,4R,5S)—N-(3-chloro-4-trifluoromethyl)phenyl)-5-hydroxy-3-(1-isopropyl-3-(trifluoromethyl)-1H-pyrazol-4-yl)-7-oxabicyclo[2.2.1]heptane-2-carboxamide]", "values": [{"measurement": "IC50", "setting": "Chondrocyte, 288 h", "value": 14, "unit": "µM"}, {"measurement": "Emax", "setting": "Chondrocyte, 288 h", "value": 64, "unit": "%"}]}, {"smiles": "Cn1cc([C@H]2[C@H]3O[C@H](C[C@@H]3O)[C@@H]2C(=O)Nc2ccc(C(F)(F)F)cc2)c(C(F)(F)F)n1", "note": "(racemic) [Example 29, rac-(1R,2R,3S,4R,5S)-5-hydroxy-3-(1-methyl-3-trifluoromethyl)-1H-pyrazol-4-yl)-N-(4-(trifluoromethyl)phenyl)-7-oxabicyclo[2.2.1]heptane-2-carboxamide]", "values": [{"measurement": "IC50", "setting": "Chondrocyte, 288 h", "value": 11, "unit": "µM"}, {"measurement": "Emax", "setting": "Chondrocyte, 288 h", "value": 72, "unit": "%"}]}, {"smiles": "O=C(Nc1ccc(C(F)(F)F)c(Cl)n1)[C@@H]1[C@@H](c2cccc(C(F)(F)F)c2)[C@H]2O[C@@H]1C[C@@H]2O", "note": "(single isomer, unassigned) [Example 25b, (1R,2R,3S,4R,5S)—N-(6-chloro-5-(trifluoromethyl)pyridin-2-yl)-5-hydroxy-3-(3-(trifluoromethyl)phenyl)-7-oxabicyclo[2.2.1]heptane-2-carboxamide or (1S,2S,3R,4S,5R)—N-(6-chloro-5-(trifluoromethylpyridin-2-yl)-5-hydroxy-3-(3-(trifluoromethyl)phenyl)-7-oxabicyclo[2.2.1]heptane-2-carboxamide]", "values": [{"measurement": "IC50", "value": 0.84, "unit": "µM"}, {"measurement": "ALP in NHAC (% Efficacy)", "value": 99, "unit": "%"}]}, {"smiles": "Cn1nc(C(F)(F)F)cc1[C@H]1[C@H]2O[C@H](C[C@@H]2O)[C@@H]1C(=O)Nc1cc(C(F)(F)F)ccc1F", "note": "(racemic) [Example 75, rac-(1R,2R,3S,4R,5S)—N-(2-fluoro-S-trifluoromethyl)phenyl)-5-hydroxy-3-(1-methyl-3-(trifluoromethyl)-1H-pyrazol-5-yl)-7-oxabicyclo[2.2.1]heptane-2-carboxamide]", "values": [{"measurement": "IC50", "setting": "Chondrocyte, 288 h", "value": "> 30", "unit": "µM"}, {"measurement": "Emax", "setting": "Chondrocyte, 288 h", "value": 46, "unit": "%"}]}, {"smiles": "Cc1c(NC(=O)[C@@H]2[C@@H](c3cccc(C(F)(F)F)c3)[C@H]3O[C@@H]2C[C@@H]3O)cccc1C(F)(F)F", "note": "(racemic) [Example 11, rac-(1R,2R,3S,4R,5S)-5-hydroxy-N-(2-methyl-3-(trifluoromethyl)phenyl)-3-(3-(trifluoromethyl)phenyl)-7-oxabicyclo[2.2.1]heptane-2-carboxamide]", "values": [{"measurement": "IC50", "setting": "Chondrocyte, 288 h", "value": "> 30", "unit": "µM"}, {"measurement": "Emax", "setting": "Chondrocyte, 288 h", "value": 33, "unit": "%"}]}]}
